In series [1] the test system is Southern armyworm (Spodoptera eridania), 3rd instar. In words: Screening: Southern armyworm larva. The class given is in vivo. Here is the method: Insect: Southern armyworm (Spodoptera eridania). 3rd instar.
Test: Screening: Southern armyworm larva.
Formulation: 2:1 acetone:water.
Plant Preparation: Sieva lima bean plants are selected with primary leaves 7-8 cm long and cut back to one plant per pot.
Insect Preparation: A 100×10 mm petri dish is prepared by putting a damp filter paper in the bottom and ten 3rd instar larvae are added. These are about 10 mm long.
Test Procedure: The bean plant is dipped for 3 seconds with agitation in the test formulation and placed in the hood to dry. One leaf is removed from the plant and placed in the petri dish with the caterpillars.
Holding Conditions: The dish is held at 27° C. The plant with the remaining leaf is held in the greenhouse under high intensity lights.
Observations: Mortality counts are made after 2 days and recorded using the standard 0-9 rating system.

Series [2] relates to Tobacco budworm (Heliothis virescens), egg. In words: Screening, TBW egg test (tobacco budworm eggs). In kind it is in vivo. Conditions: 300 ppm. The source says: Insect: Tobacco budworm (Heliothis virescens), egg
Test: Screening, TBW egg test.
(§1) Formulation: 50:50 acetone:water.
Concentrations: Screening: 300, 100, 10, 1 ppm.
(§2) Plant Preparation: Cotton plants are selected to give plants with the first true leaf expanded to about 6-7 cm in length.
Insect Preparation: Eggs are collected on cheesecloth used as the lid for the moth oviposition chamber in the rearing colony. This cloth is cut into 10-20 mm squares containing about 50-100 budworm eggs laid within the past day. Thus, eggs are 6-30 hours old when used in the test.
Test Procedures: The cotton plant is dipped in the test formulation and agitated for 3 seconds. A square of cheesecloth with eggs is also dipped in the test formulation, placed on the treated leaf and the combination placed in the hood to air dry. When dry, the leaf and egg cloth are removed from the plant, and placed in an "8-ounce Dixie cup (240 ml. 6 cm high, top diameter 9.5 cm. bottom diameter 8 cm)," to which a 5 cm length of damp cotton dental wick had been previously added. A clear plastic lid is placed on the cup.
Holding Conditions: The cups are held at 27° C. until the eggs hatch, which occurs in about 2 days.
Observations: Kill of eggs. This may require the use of a low-power microscope to determine if the lack of visible mobile caterpillars is due to lack of egg hatch or due to the newly hatched caterpillars dying on the leaf under and near the cheesecloth. The standard rating system of 0-9 is used to record the results.

Series [3] concerns Tobacco budworm (Heliothis vireacens), 1st instar. In words: Screening, TBW 1st instar test. The class given is in vivo. The protocol:
Insect: Tobacco budworm (Heliothis vireacens), 1st instar.
Test: Screening, TBW 1st instar test.
(§3) Formulation: 50:50 acetone:water
Concentrations: Screening: 300, 100, 10, 1 ppm
as §2
Insect Preparation: Cheesecloth on which moths have oviposited is daily cut into 10-20 mm squares containing 50-100 eggs each. These squares are held at 21° C. for 2 days and 24° C. for another day in order to coordinate hatch with testing times. Thus, the larvae are 0-2 hours old at time of use.
Test Procedure: The cotton plant is dipped in the test formulation, agitated for 3 seconds, and placed in the hood to air dry. When dry, the leaf is removed from the plant and placed in an "8-ounce Dixie cup (240 ml, 6 cm high, top diameter 9.5 cm, bottom diameter (8 cm)" to which a 5 cm length of damp cotton dental wick had been previously added. A square of cheesecloth with newly hatched budworm larvae on it is placed on the treated leaf and a clear plastic lid is put on the cup.
Holding Conditions: The cups are held at 27° C. for 2 days.
Observations: Kill of larvae. This may require the use of a low-power microscope to determine if the worms are dead or just not feeding. Observation of amount of feeding is also recorded. Where there is only trace to light feeding, the cup is held an extra day and results recorded at that time. The standard rating system of 0-9 is used.

Series [4] in a line: Determination of Solubility in Soybean Oil (HPLC of oil phase after equilibration). In kind it is physicochemical. Conditions: for % Salt in Oil Layer / % Amidino Hydrazone in Oil Layer (w/w), Average: 25° C.; for % Salt in Oil Layer: footnote * formula (drawing 4); for % Amidino Hydrazone in Oil Layer (w/w), Average: average of duplicates; for % Amidino Hydrazone in Oil Layer (w/w): individual duplicate, equilibrated at 100° C. 4 hours, cooled to 25° C. The protocol:
Each salt of example 1 was equilibrated with approximately 3/8 its weight of soybean oil at 100° C. for 4 hours with ultrasonic agitation. The resulting mixtures were centrifuged while hot and allowed to cool to room temperature (25° C.). […] Duplicate samples of the oil phases were analyzed by solution in methylene chloride and quantitation by HPLC.

In series [5] the test system is Phosphate resistant 2-spotted spider mite (Tetranychus urticae). In words: Screening: Mite test. Conditions: 300 ppm. The class given is in vivo. Here is the method:
Mite: Phosphate resistant 2-spotted spider mite
(Tetranychus urticae), adults, eggs, nymphs.
Test: Screening: Mite test.
as §3
Plant Preparation: Sieva lima bean plants with primary leaves 7-8 cm long are selected and cut back to one plant per pot. A small piece is cut off of a leaf taken from the main mite colony and placed on each leaf of the test plants. This is done about 1-3 hours before use to allow the mites to move over to the test plant and lay eggs before treatment. The size of the piece cut is varied to try to obtain about 100 mites per leaf.
Mite Preparation: See above.
Test Procedure: The piece of leaf used to transfer mites is removed and discarded. The mite-infested plant is dipped in the test formulation for 3 seconds with agitation, and the plant set in the hood to dry.
Holding Conditions: The plants are held for 2 days at 27° C. for the first observation, and the second leaf is kept on the plant for another 5 days for the final observation.
Observations: After 2 days one leaf is removed and examined under a 10×microscope to determine the mortality of the adult mites. The second leaf is examined similarly 7 days after treatment to observe the kill of eggs and of newly hatched nymphs giving a measure of ovicidal and residual action, respectively. Any evidence of phytotoxicity from the test treatment is noted. The standard rating system of 0-9 is used to record the mite data.

The subject of series [6] is Bean aphid (Aphis fabae), mixed stages. In words: Screening: bean aphid test. In kind it is in vivo. The note with it: 100 ppm. Here is the method:
Insect: Bean aphid (Aphis fabae), mixed stages.
Test: Screening: bean aphid test
as §1
Plant Preparation: 5 cm pots each containing a nasturtium plant about 5 cm tall are infested with 100 to 400 aphids 2-4 days before the test.
Insect Preparation: See above.
Test Procedure: The pot of aphids is sprayed for 2 revolutions of a 4 rpm turntable in the hood, using a #154 DeVilbiss atomizer at 1500 kg/m^2 pressure. The spray tip is held about 15 cm from the plant and the spray directed so as to give complete coverage of the aphid and the plants. The sprayed plants are laid on their sides on white enamel trays measuring 24×34 cm.
Holding Conditions: Trays of sprayed pots are held at 27° C. for 1 day.
Observations: Mortality estimates are made and data recorded with the standard […] rating system.
NOTE: For LD50 determinations, a clean tray 24×34 cm is ruled off into a grid with 3 cm spacing and the live aphids gently brushed off the plant onto the gridded tray. This makes it easier to make an exact count of the number of aphids on the plant. Dead aphids, which fall off the plant onto the tray, are counted where they fall, since they stick to the tray and cannot be brushed onto a gridded tray for counting.

Series [7] in a line: Solubility of the toxicant in fatty acids and edible fats and oils. The class given is physicochemical.
[8] abbreviates: listed as Amidino Hydrazone Salt Of Linoleic Acid.
[9] abbreviates: listed as Amidino Hydrazone Salt Of Linolenic Acid.
The mark [10] stands for this setting: listed as Amidino Hydrazone Salt Of Oleic Acid.
Where [11] appears, read: listed as Amidino Hydrazone Salt Of Stearic Acid.

The results in this text go back to patent US4353907A, “Amidino hydrazone . C17 H29-35 COOH insect and fire ant bait formulations” (American Cyanamid Co., priority 1981, dated 1982).

Several values for one entry are separate records, joined by “and”; a condition that tells them apart may be missing. Equal values may be shown once.

In the case of `CC1(C)CN=C(NN=C(C=Cc2ccc(C(F)(F)F)cc2)C=Cc2ccc(C(F)(F)F)cc2)NC1` [Amidino Hydrazone Linoleate], the “3rd Instar Armyworms control rating” value in series [1] (10 ppm), in series [1] (100 ppm) and in series [1] (1000 ppm) was 9 (100% control) each time. In addition, the “Budworm Eggs control rating” value in series [2] is on record as 0 (0 control). The “1st Instar Tobacco Budworms control rating” value in series [3] (10 ppm) is recorded as 0 (0 control); in series [3] (100 ppm) it was 7 (80% control); in series [3] (300 ppm) it was 9 (100% control). Also, the “% Salt in Oil Layer” value in series [4] (setting [8]) was 47%. Also, in series [4] (setting [8]), the “% Amidino Hydrazone in Oil Layer (w/w), Average” value (“% Amidino Hydrazone … Average” below) is 30.3 % (w/w). Besides, the “% Amidino Hydrazone in Oil Layer (w/w)” value in series [4] (setting [8]) was 30.3 % (w/w) and 30.4 % (w/w). For the same molecule, the “P-res. Mites control rating” value in series [5] is on record as 0 (0 control). For the same molecule, in series [6], the Aphids control rating is given as 0 (0 control).

For the molecule `CC1(C)CN=C(NN=C(C=Cc2ccc(C(F)(F)F)cc2)C=Cc2ccc(C(F)(F)F)cc2)NC1` [Amidino Hydrazone Linolenate], the “3rd Instar Armyworms control rating” value in series [1] (10 ppm, listed as Amidino Hydrazine Linolenate) is recorded as 9 (100% control); in series [1] (100 ppm), 9 (100% control); in series [1] (1000 ppm), 9 (100% control). In addition, the “Budworm Eggs control rating” value in series [2] was 0 (0 control). Besides, the “1st Instar Tobacco Budworms control rating” value is on record as 0 (0 control) in series [3] (10 ppm); 9 (100% control) in series [3] (100 ppm, listed as Amidino Hydrazine Linolenate); 9 (100% control) in series [3] (300 ppm, listed as Amidino Hydrazine Linolenate). For the same molecule, the “% Salt in Oil Layer” value in series [4] (setting [9]) came to 55%. Moreover, the “% Amidino Hydrazone … Average” value in series [4] (setting [9]) is 35.4 % (w/w). Further, the “% Amidino Hydrazone in Oil Layer (w/w)” value in series [4] (setting [9]) was 35.9 % (w/w) and 34.8 % (w/w). Moreover, in series [5], the “P-res. Mites control rating” value is given as 0 (0 control). For the same molecule, the Aphids control rating in series [6] (listed as Amidino Hydrazine Linolenate) is given as 5 (60% control).

Turning to `CC1(C)CN=C(NN=C(C=Cc2ccc(C(F)(F)F)cc2)C=Cc2ccc(C(F)(F)F)cc2)NC1` [Amidino Hydrazone Oleate], the “3rd Instar Armyworms control rating” value is 6 (70% control) in series [1] (10 ppm), 9 (100% control) in series [1] (100 ppm) and 9 (100% control) in series [1] (1000 ppm). In addition, the “Budworm Eggs control rating” value in series [2] was 0 (0 control). Further, the “1st Instar Tobacco Budworms control rating” value is listed as 0 (0 control) in series [3] (10 ppm), 0 (0 control) in series [3] (100 ppm) and 7 (80% control) in series [3] (300 ppm). Also, the “% Salt in Oil Layer” value in series [4] (setting [10]) is given as 44%. Further, the “% Amidino Hydrazone … Average” value in series [4] (setting [10]) was 28.0 % (w/w). In series [4] (setting [10]), the “% Amidino Hydrazone in Oil Layer (w/w)” value is 27.8 % (w/w) and 28.1 % (w/w). In addition, the “P-res. Mites control rating” value in series [5] was 0 (0 control). Besides, the Aphids control rating in series [6] is on record as 0 (0 control).

As for `CC1(C)CN=C(NN=C(C=Cc2ccc(C(F)(F)F)cc2)C=Cc2ccc(C(F)(F)F)cc2)NC1` [Amidino Hydrazone Stearate, 1,4-pentadien-3-one, 1,5-bis(alpha,alpha,alpha-trifluoro-p-tolyl)-(1,4,5,6-tetrahydro-5,5-dimethyl-2-pyrimidinyl)hydrazone stearate], the “3rd Instar Armyworms control rating” value in series [1] (10 ppm), in series [1] (100 ppm) and in series [1] (1000 ppm) was 9 (100% control) throughout. Also, in series [2], the “Budworm Eggs control rating” value was 0 (0 control). Also, the “1st Instar Tobacco Budworms control rating” value in series [3] (10 ppm) is 0 (0 control); in series [3] (100 ppm), 9 (100% control); in series [3] (300 ppm), 9 (100% control). The “% Salt in Oil Layer” value in series [4] (setting [11]) was determined as 47%. For the same molecule, the “% Amidino Hydrazone … Average” value in series [4] (setting [11]) is listed as 30.1 % (w/w). Moreover, the “% Amidino Hydrazone in Oil Layer (w/w)” value in series [4] (setting [11]) was 29.8 % (w/w) and 30.4 % (w/w). In series [5], the “P-res. Mites control rating” value is 0 (0 control). Further, in series [6], the Aphids control rating is reported as 8 (90% control).

As for `CC1(C)CN=C(NN=C(C=Cc2ccc(C(F)(F)F)cc2)C=Cc2ccc(C(F)(F)F)cc2)NC1` [Amidino Hydrazone, 1,5-bis(alpha,alpha,alpha-trifluoro-p-tolyl)-1,4-pentadien-3-one (1,4,5,6-tetrahydro-5,5-dimethyl-2-pyrimidinyl)hydrazone], the “solubility in edible fats and oils attractive to fire ants” value in series [7] (edible fats and oils as solvents for the toxicant) is reported as “not very good solvents”. The “solubility in fatty acids” value in series [7] (oleic, linoleic, linolenic, stearic acid and mixtures) is reported as “readily soluble”.
